# PubChem BioAssay (NCI)
#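 Dose response: 5 concentrations. Exposure: 48 h. Format: 96-well plates. Endpoint: linear interpolation; highest concentration if not reached. GI50 marks 50% less growth. TGI: total growth inhibition.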
# Tests used:
# Test in all cases: NCI anticancer screen, dose series, 48 h
# [1] = system: U251 CNS
# [2] = system: OVCAR-4 ovarian
# [3] = system: HL-60(TB) leukemia
# [4] = system: TK-10 renal
# [5] = system: OVCAR-3 ovarian
# [6] = system: RPMI-8226 leukemia
# [7] = system: SK-OV-3 ovarian
# [8] = system: HOP-18 NSCLC
# [9] = system: DMS 114 small cell lung
# [10] = system: MOLT-4 leukemia
# [11] = system: DLD-1 colon
# [12] = system: XF 498 CNS
# [13] = system: KM20L2 colon
# [14] = system: CAKI-1 renal
# [15] = system: M14 melanoma
# [16] = system: NCI-H23 lung
# [17] = system: KM12 colon
# [18] = system: HOP-92 NSCLC
# [19] = system: HCT-15 colon
# [20] = system: LXFL 529 NSCLC
# [21] = system: SK-MEL-2 melanoma
# [22] = system: 786-0 renal
# [23] = system: NCI-H226 lung
# [24] = system: SNB-19 CNS
# [25] = system: A549 NSCLC
# [26] = system: SK-MEL-28 melanoma
# [27] = system: EKVX NSCLC
# [28] = system: NCI-H460 lung
# [29] = system: IGROV1 ovarian
# [30] = system: MALME-3M melanoma
# [31] = system: HCC-2998 colon
# [32] = system: UO-31 renal
# [33] = system: ACHN renal
# [34] = system: K-562 leukemia
# [35] = system: SF-268 CNS
# [36] = system: SF-295 CNS
# [37] = system: CCRF-CEM leukemia
# [38] = system: COLO 205 colon
# [39] = system: SF-539 CNS
# [40] = system: A498 renal
# [41] = system: SN12C renal
# [42] = system: SK-MEL-5 melanoma
# [43] = system: NCI-H522 lung
# [44] = system: SR leukemia
# [45] = system: RXF 393 renal
# [46] = system: M19-MEL melanoma
# [47] = system: DMS 273 small cell lung
# [48] = system: OVCAR-8 ovarian
# [49] = system: SNB-75 CNS
# [50] = system: HCT-116 colon
# [51] = system: HT29 colon
# [52] = system: SW-620 colon
# [53] = system: LOX IMVI melanoma
# [54] = system: UACC-257 melanoma
# [55] = system: OVCAR-5 ovarian
# [56] = system: UACC-62 melanoma
compound,measurement,setting,value
CN(C)N=Nc1ccccc1,TGI,[1],> 100 µM
same,TGI,[2],> 100 µM
same,TGI,[3],> 100 µM
same,TGI,[4],> 100 µM
same,TGI,[5],> 100 µM
same,TGI,[6],> 100 µM
same,TGI,[7],> 100 µM
same,TGI,[8],> 100 µM
same,TGI,[9],> 100 µM
same,TGI,[10],> 100 µM
same,TGI,[11],> 100 µM
same,TGI,[12],> 100 µM
same,TGI,[13],> 100 µM
same,TGI,[14],> 100 µM
same,TGI,[15],> 100 µM
same,TGI,[16],> 100 µM
same,TGI,[17],> 100 µM
same,TGI,[18],> 100 µM
same,TGI,[19],> 100 µM
same,TGI,[20],> 100 µM
same,TGI,[21],> 100 µM
same,TGI,[22],> 100 µM
same,TGI,[23],> 100 µM
same,TGI,[24],> 100 µM
same,TGI,[25],> 100 µM
same,TGI,[26],> 100 µM
same,TGI,[27],> 100 µM
same,TGI,[28],> 100 µM
same,TGI,[29],> 100 µM
same,TGI,[30],> 100 µM
same,TGI,[31],> 100 µM
same,TGI,[32],> 100 µM
same,TGI,[33],> 100 µM
same,TGI,[34],> 100 µM
same,TGI,[35],> 100 µM
same,TGI,[36],> 100 µM
same,TGI,[37],> 100 µM
same,TGI,[38],> 100 µM
same,TGI,[39],> 100 µM
same,TGI,[40],> 100 µM
same,TGI,[41],> 100 µM
same,TGI,[42],> 100 µM
same,TGI,[43],> 100 µM
same,TGI,[44],> 100 µM
same,TGI,[45],> 100 µM
same,TGI,[46],> 100 µM
same,TGI,[47],> 100 µM
same,TGI,[48],> 100 µM
same,TGI,[49],> 100 µM
same,TGI,[50],> 100 µM
same,TGI,[51],> 100 µM
same,TGI,[52],> 100 µM
CC(=O)[CH-]C(C)=O.CC(=O)[CH-]C(C)=O.CC(=O)[CH-]C(C)=O.[In+3],GI50,[1],> 100 µM
same,TGI,[1],> 100 µM
same,GI50,[2],> 100 µM
same,TGI,[2],> 100 µM
same,GI50,[3],> 100 µM
same,TGI,[3],> 100 µM
same,GI50,[4],> 100 µM
same,TGI,[4],> 100 µM
same,GI50,[5],> 100 µM
same,TGI,[5],> 100 µM
same,GI50,[6],> 100 µM
same,TGI,[6],> 100 µM
same,GI50,[7],> 100 µM
same,TGI,[7],> 100 µM
same,GI50,[8],52.4 µM
same,TGI,[8],> 100 µM
same,GI50,[9],> 100 µM
same,TGI,[9],> 100 µM
same,GI50,[53],> 100 µM
same,TGI,[53],> 100 µM
same,GI50,[10],> 100 µM
same,TGI,[10],> 100 µM
same,GI50,[54],> 100 µM
same,TGI,[54],> 100 µM
same,GI50,[11],> 100 µM
same,TGI,[11],> 100 µM
same,GI50,[55],> 100 µM
same,TGI,[55],> 100 µM
same,GI50,[12],> 100 µM
same,TGI,[12],> 100 µM
same,GI50,[13],> 100 µM
same,TGI,[13],> 100 µM
same,GI50,[14],> 100 µM
same,TGI,[14],> 100 µM
same,GI50,[15],> 100 µM
same,TGI,[15],> 100 µM
same,GI50,[16],> 100 µM
same,TGI,[16],> 100 µM
same,GI50,[17],> 100 µM
same,TGI,[17],> 100 µM
same,GI50,[18],> 100 µM
same,TGI,[18],> 100 µM
same,GI50,[20],> 100 µM
same,TGI,[20],> 100 µM
same,GI50,[21],> 100 µM
same,TGI,[21],> 100 µM
same,GI50,[22],> 100 µM
same,TGI,[22],> 100 µM
same,GI50,[23],> 100 µM
same,TGI,[23],> 100 µM
same,GI50,[24],> 100 µM
same,TGI,[24],> 100 µM
same,GI50,[25],> 100 µM
same,TGI,[25],> 100 µM
same,GI50,[26],> 100 µM
same,TGI,[26],> 100 µM
same,GI50,[28],> 100 µM
same,TGI,[28],> 100 µM
same,GI50,[29],> 100 µM
same,TGI,[29],> 100 µM
same,GI50,[30],> 100 µM
same,TGI,[30],> 100 µM
same,GI50,[32],> 100 µM
same,TGI,[32],> 100 µM
same,GI50,[33],> 100 µM
same,TGI,[33],> 100 µM
same,GI50,[34],> 100 µM
same,TGI,[34],> 100 µM
same,GI50,[35],> 100 µM
same,TGI,[35],> 100 µM
same,GI50,[36],> 100 µM
same,TGI,[36],> 100 µM
same,GI50,[37],> 100 µM
same,TGI,[37],> 100 µM
same,GI50,[38],> 100 µM
same,TGI,[38],> 100 µM
same,GI50,[39],> 100 µM
same,TGI,[39],> 100 µM
same,GI50,[40],> 100 µM
same,TGI,[40],> 100 µM
same,GI50,[41],> 100 µM
same,TGI,[41],> 100 µM
same,GI50,[42],> 100 µM
same,TGI,[42],> 100 µM
same,GI50,[43],> 100 µM
same,TGI,[43],> 100 µM
same,GI50,[44],> 100 µM
same,TGI,[44],> 100 µM
same,GI50,[45],> 100 µM
same,TGI,[45],> 100 µM
same,GI50,[47],> 100 µM
same,TGI,[47],> 100 µM
same,GI50,[56],> 100 µM
same,TGI,[56],> 100 µM
same,GI50,[48],> 100 µM
same,TGI,[48],> 100 µM
same,GI50,[49],> 100 µM
same,TGI,[49],> 100 µM
same,GI50,[50],> 100 µM
same,TGI,[50],> 100 µM
same,GI50,[51],> 100 µM
same,TGI,[51],> 100 µM
same,GI50,[52],> 100 µM
same,TGI,[52],> 100 µM
